The record followed here is US20160304547A1, “MACROLIDE COMPOUND” (PULIKE BIOLOGICAL ENGINEERING, INC, priority 2013, published 2016).

Test [1] relates to Streptococcus pneumoniae CMCC 31203. The test is described as follows: In vivo antibacterial test, survival of infected BALB/c mice. The following applies: CMCC31203, sc, 168 h; BALB/c mice infected i.p. with Streptococcus pneumoniae; 5 mg per kg s.c. via neck for 3 consecutive days; deaths recorded until the seventh day; read-out: Animal survival rate.
In test [2] the test system is Staphylococcus aureus CVCC26003. The test is described as follows: MIC by mini broth dilution technique (in vitro susceptibility). To be noted: Staphylococcus aureus CVCC26003; broth dilution; read-out: MIC values Staphylococcus aureus CVCC26003. The test is classed as cell-based. As for the experimental part: (§1) in vitro tests of susceptibility of the compounds according to the present disclosure against bacterial strains commonly used in laboratories. In accordance with the Performance Standards for Antimicrobial Disk Susceptibility Tests: Approved Standard published by the US National Committee for Clinical Laboratory Standards, the antibactetial activities of compounds prepared according to examples 5 to 187 were tested. The MICs (minimum inhibitory concentration) of the medicaments prepared according to the examples on the following bacterial strains were measured through mini broth dilution technique. Staphylococcus aureus CVCC26003, Streptococcus equines CVCC556. Actinobacillus pleuropneumoniae CVCC262, Haemophilus parasuis, and Pasteurella multocida CVCC399, which were purchased from the Control Institute of Veterinary Bioproducts and Pharmaceuticals, China. Liquid culture medium: CAMHB. […] Solid culture medium: NINA prepared according to the specification of the final product. The strains were taken out of a regrigerator at −20° C. to be revived, and were spreaded by streaking on the solid culture medium with an inoculating loop. The inoculated culture medium was cultured at 35° C. in a constant temperature incubator for 20 h. Monoclonal antibodies were selected from a well-grown culture plate and streaked on the solid culture medium. The inoculated culture medium was cultured at 35° C. in the constant temperature incubator for 20 h. […] A 96-well plate was used, and 100 μl of DMSO was added into each of wells 2 to 11, and 200 μl of ready-prepared medicament solution was added into the 1st well, 100 μl of the medicament solution was extracted from the 1st well and added into the 2nd well. Double dilution was performed until the 11th well, thereby forming 11 gradients. In this case, compound of parent plate was prepared. 3 μl of double diluted medicament solution was extracted with a 12-channel pipettor and added into wells 1-11 of a new disposable 96-well culture plate. The 12th well thereof is a controll well. For each medicament, there are two adjacent rows which are parallel. The transferred compound plate was reserved for later use. […] The dilution ratio was recorded, and the bacterial liquid for the tests was diluted according to the recorded dilution ratio. Subsequently, the bacterial suspension and the liquid culture medium were diluted in the proportion of 1:200. The diluted solution was reserved for later use.
In general terms: In broth dilution the organism is exposed to a series of concentrations in liquid medium.

For test [3], the system named is Actinobacillus pleuropneumoniae CVCC262. The test is described as above. The test is classed as cell-based. To be noted: Actinobacillus pleuropneumoniae CVCC262; broth dilution; read-out: MIC values Actinobacillus pleuropneumoniae CVCC262. As for the experimental part:
as §1, with “medium:” for “medium: CAMHB.”, “NINA prepared according to the specification of the final product.” left out

The subject of test [4] is Streptococcus equines CVCC556. The description is as above. To be noted: Streptococcus equines CVCC556; broth dilution; read-out: MIC values Streptococcus equines CVCC556. The test is classed as cell-based. As for the experimental part: as §1, with “medium:” for “medium: CAMHB.”, “NINA prepared according to the specification of the final product.” left out
In a further test the test system is Haemophilus parasuis. Described as above. To be noted: Glaesserella parasuis; Haemophilus parasuis; broth dilution; read-out: MIC values Haemophilus parasuis. The test is classed as cell-based. As for the experimental part:
as §1, with “medium:” for “medium: CAMHB.”, “NINA prepared according to the specification of the final product.” left out

Test [5] relates to Pasteurella multocida CVCC399. Described as above. The test is classed as cell-based. To be noted: Pasteurella multocida CVCC399; broth dilution; read-out: MIC values Pasteurella multocida CVCC399. As for the experimental part: as §1, with “medium:” for “medium: CAMHB.”, “NINA prepared according to the specification of the final product.” left out

≈ marks a conversion by molar mass, not a printed value.

The MIC is the lowest concentration found to suppress growth. Turning to `CCCCNC[C@]1(O)[C@H](C)OC(O[C@@H]2[C@@H](C)[C@@H](O[C@@H]3O[C@H](C)C[C@H](N(C)C)[C@H]3O)[C@](C)(O)C[C@@H](C)NC[C@@H](C)[C@H](O)[C@](C)(O)[C@H](CC)OC(=O)[C@@H]2C)C[C@@]1(C)OC` (some centres unmarked) [syzx-2], the responders at 5 mg/kg in test [1] is 80%. Besides, the MIC in test [2] amounted to 4 µg/mL (≈ 4.88 µM); in test [3] it was 1 µg/mL (≈ 1.22 µM); in test [4], 2 µg/mL (≈ 2.44 µM); in the test with Haemophilus parasuis, 2 µg/mL (≈ 2.44 µM); in test [5], 2 µg/mL (≈ 2.44 µM).

In the case of `CC[C@@H]1OC(=O)[C@H](C)[C@H](OC2C[C@@](C)(OC)[C@](O)(CN(CC)CC)[C@H](C)O2)[C@@H](C)[C@@H](O[C@@H]2O[C@H](C)C[C@H](N(C)C)[C@H]2O)[C@](C)(O)C[C@@H](C)NC[C@@H](C)[C@H](O)[C@]1(C)O` (stereo partly drawn) [syzx-3, (2R,3S,4R,5S,8R,10R,11R,12S,13S,14R)-13-[(2,6-dideoxy-3-C -methyl-3-O-methyl-4-C-[(diethylamino)methyl]-α-L-ribopyranosyl)oxy]-2-ethyl-3,4,10-trihydroxy-3,5,8,10,12,14-hexamethyl-11-[[3,4,6-trideoxy-3-(dimethylamino)-β-D-xylo-hexopyranosy]oxy]-1-oxa-7-azacyclopentadecan-15-one], the responders at 5 mg/kg in test [1] is 70%. Besides, the MIC in test [2] amounted to 0.5 µg/mL (≈ 0.61 µM); in test [3], 1 µg/mL (≈ 1.22 µM); in test [4], 0.125 µg/mL (≈ 0.152 µM); with Haemophilus parasuis, 0.125 µg/mL (≈ 0.152 µM); in test [5], 0.125 µg/mL (≈ 0.152 µM).

With `CC[C@@H]1OC(=O)[C@H](C)[C@H](OC2C[C@@](C)(OC)[C@](O)(CN3CCOCC3)[C@H](C)O2)[C@@H](C)[C@@H](O[C@@H]2O[C@H](C)C[C@H](N(C)C)[C@H]2O)[C@](C)(O)C[C@@H](C)NC[C@@H](C)[C@H](O)[C@]1(C)O` (stereo partly drawn) [syzx-5, (2R,3S,4R,5S,8R,10R,11R,12S,13S,14R)-13-[(2,6-dideoxy-3-C-methyl-3-O-methyl-4-C-[(morpholinyl)methyl]-α-L-ribopyranosyl)oxy]-2-ethyl-3,4,10-trihydroxy-3,5,8,10,12,14-hexamethyl-11-[[3,4,6-trideoxy-3-(dimethylamino)-β-D-xylo-hexopyranosy]oxy]-1-oxa-7-azacyclopentadecan-15-one], the responders at 5 mg/kg in test [1] was found to be 70%. Besides, the MIC in test [2] is 0.5 µg/mL (≈ 0.599 µM); in test [3], 16 µg/mL (≈ 19.2 µM); in test [4], no more than 0.25 µg/mL; in the test on Haemophilus parasuis, 0.5 µg/mL (≈ 0.599 µM); in test [5], 0.5 µg/mL (≈ 0.599 µM).

With `CC[C@@H]1OC(=O)[C@H](C)[C@H](OC2C[C@@](C)(OC)[C@](O)(CNC3CC3)[C@H](C)O2)[C@@H](C)[C@@H](O[C@@H]2O[C@H](C)C[C@H](N(C)C)[C@H]2O)[C@](C)(O)C[C@@H](C)NC[C@@H](C)[C@H](O)[C@]1(C)O` (stereo partly drawn) [syzx-6, (2R3S,4R5S,8R,10R,11R,12S,13S,14R)-13-[(2,6-dideoxy-3-C-methyl-3-O-methyl-4-C-[(cyclopropylamino)methyl]-α-L-ribopyranosyl)oxy]-2-ethyl-3,4,10-trihydroxy-3,5,8,10,12,14-hexamethyl-11-[[3,4,6-trideoxy-3-(dimethylamino)-β-D-xylo-hexopyranosy]oxy]-1-oso-7-azacyclopentadecan-15-one], the responders at 5 mg/kg in test [1] was 80%. The minimal inhibitory concentration (MIC) (in test [2]; in test [3]; in test [4]; in the test on Haemophilus parasuis; in test [5]) was 0.125 µg/mL (≈ 0.155 µM) throughout.

For the compound `CCNC[C@]1(O)[C@H](C)OC(O[C@@H]2[C@@H](C)[C@@H](O[C@@H]3O[C@H](C)C[C@H](N(C)C)[C@H]3O)[C@](C)(O)C[C@@H](C)NC[C@@H](C)[C@H](O)[C@](C)(O)[C@H](CC)OC(=O)[C@@H]2C)C[C@@]1(C)OC` (stereo partly drawn) [syzx-10, (2R,3S,4R,5S,8R,10R,11R,12S,13S,14R)-13-[(2,6-dideoxy-3-C-methyl-3-O-methyl-4-C-[(ethylamino)methyl]-α-L-ribopyranosyl)oxy]-2-ethyl-3,4,10-trihydroxy-3,5,8,10,12,14-hexamethyl-11-[[3,4,6-trideoxy-3-(dimethylamino)-β-D-xylo-hexopyranosy]oxy]-1-oxa-7-azacycopentadecan-15-one], the responders at 5 mg/kg in test [1] is 90%. In addition, the MIC in test [2] was 0.5 µg/mL (≈ 0.631 µM); in test [3] it was 0.5 µg/mL (≈ 0.631 µM); in test [4], 0.5 µg/mL (≈ 0.631 µM); with Haemophilus parasuis, 1 µg/mL (≈ 1.26 µM); in test [5] it was no more than 0.25 µg/mL.

With `CC[C@@H]1OC(=O)[C@H](C)[C@H](OC2C[C@@](C)(OC)[C@](O)(CNC(C)C)[C@H](C)O2)[C@@H](C)[C@@H](O[C@@H]2O[C@H](C)C[C@H](N(C)C)[C@H]2O)[C@](C)(O)C[C@@H](C)NC[C@@H](C)[C@H](O)[C@]1(C)O` (some centres unmarked) [syzx-11], in test [1], the responders at 5 mg/kg is 70%. Moreover, the MIC in test [2] is no more than 0.25 µg/mL; in test [3], 0.5 µg/mL (≈ 0.62 µM); in test [4], no more than 0.25 µg/mL; with Haemophilus parasuis, 0.5 µg/mL (≈ 0.62 µM); in test [5], no more than 0.25 µg/mL.

With `CC[C@@H]1OC(=O)[C@H](C)[C@H](OC2C[C@@](C)(OC)[C@](O)(CNCC(C)C)[C@H](C)O2)[C@@H](C)[C@@H](O[C@@H]2O[C@H](C)C[C@H](N(C)C)[C@H]2O)[C@](C)(O)C[C@@H](C)NC[C@@H](C)[C@H](O)[C@]1(C)O` (stereo partly drawn) [syzx-12, (2R,3S,4R,5S,8R,10R,11R,12S,13S,14R)-13-[(2,6-dideoxy-3-C-methyl-3-O-methyl-4-C-[(isobutylamino)methyl]-α-L-ribopyranosyl)oxy]-2-ethyl-3,4,10-trihydroxy-3,5,8,10,12,14-hexamethyl-11-[[3,4,6-trideoxy-3-(dimethylamino)-β-D-xylo-hexopyranosy]oxy]-1-oxa-7-azacyclopentadecan-15-one], the responders at 5 mg/kg in test [1] was found to be 70%. Also, the MIC (in test [2]; in test [3]; in test [4]; in the test with Haemophilus parasuis; in test [5]) was no more than 0.25 µg/mL throughout.

Regarding `CC[C@@H]1OC(=O)[C@H](C)[C@H](OC2C[C@@](C)(OC)[C@](O)(CNCCOC)[C@H](C)O2)[C@@H](C)[C@@H](O[C@@H]2O[C@H](C)C[C@H](N(C)C)[C@H]2O)[C@](C)(O)C[C@@H](C)NC[C@@H](C)[C@H](O)[C@]1(C)O` (stereo partly drawn) [syzx-25, (2R,3S,4R,5S,8R,10R,11R,12S,13S,14R)-13-[(2,6-dideoxy-3-C-methyl-3-O-methyl-4-C-[(2-methoxyethyl)amino-methyl]-α-L-ribopyranosyl)oxy]-2-ethyl-3,4,10-trihydroxy-3,5,8,10,12,14-hexamethyl-11-[[3,4,6-trideoxy-3-(dimethylamino)-β-D-xylo-hexopyranosy]oxy]-1-oxa-7-azacyclopentadecan-15-one], the MIC in test [2] is no more than 0.25 µg/mL; in test [3], 16 µg/mL (≈ 19.5 µM); in test [4], no more than 0.25 µg/mL; in the test with Haemophilus parasuis, no more than 0.25 µg/mL; in test [5], no more than 0.25 µg/mL.
